As a reminder, the log P is the decadic logarithm of the partition coefficient of the neutral form, usually between octanol and water. A higher log P goes with a more lipophilic compound. By chromatographic logP is commonly meant lipophilicity estimated from chromatographic retention.

2 compounds from patent US20240300908A1, “CHIRAL 3-SULFINYL BENZOIC ACIDS” (BAYER AKTIENGESELLSCHAFT, priority 2021, published 2024) can be followed below.

The nature of the series: HPLC (H3PO4) log P determination. The series is classed as physicochemical.

For the compound `C[S+]([O-])c1c(C(F)(F)F)ccc(C(=O)O)c1Cl` (racemic) [Example 1 Step 1, 2-chloro-3-[(S,R)-methylsulfinyl]-4-(trifluoromethyl)benzoic Acid], the “log P” value turned out to be 0.96.

In turn, `C[S@+]([O-])c1c(C(F)(F)F)ccc(C(=O)O)c1Cl` [Example 1, 2-chloro-3-[(S)-methylsulfinyl]-4-(trifluoromethyl)benzoic acid] yielded a chromatographic logP of 1.
